The text below walks through data of patent publication US10821115B2, “Compounds that inhibit Mcl-1 protein” (priority 2017, dated 2020).

Assay [1] relates to human multiple myeloma cell line, OPM-2. The assay can be described thus: Cell viability assay (OPM-2 10 FBS), CellTiter-Glo. In kind it is cell-based. The procedure, abridged: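 IC50 values come from 4-parameter logistic fits of luminescence signals reflecting cell viability. Treatment lasted 16 h at 37 °C in complete medium with 10% FBS, starting from 3000 cells/well.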
A general note: ATP-based viability assays read luminescence as a measure of living cells.

In assay [2] the target is recombinant human Mcl-1 (residues 171-327) / Bim interaction (Homo sapiens (Human), UniProt Q07820). Briefly: biochemical. In kind it is binding. As to conditions: read-out: Mcl-1 HTRF IC50. A general note: Time-resolved FRET reads energy transfer from a long-lived donor to a nearby acceptor.
Sequence of recombinant human Mcl-1 (residues 171-327) / Bim interaction (Q07820 171-327): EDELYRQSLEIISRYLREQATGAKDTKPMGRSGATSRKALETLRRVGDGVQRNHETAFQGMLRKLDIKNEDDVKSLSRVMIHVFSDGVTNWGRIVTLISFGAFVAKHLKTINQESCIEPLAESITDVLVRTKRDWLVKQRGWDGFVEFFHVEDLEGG
Setting [3] is: Homo sapiens, OPM-2, 16 h, read-out: OPM-2 10% FBS IC50 IP, OPM-2 cells, 10% FBS, 16 h incubation.
The mark [4] stands for this setting: 0.1 nM Mcl-1(171-327), 0.05 nM biotin-Bim (51-76).
The mark [5] stands for this setting: Homo sapiens, OPM-2, 16 h, read-out: OPM-2 10% FBS IC50 IP, OPM-2 cells, 10% FBS, 16 h, CellTiter-Glo.
The mark [6] stands for this setting: TR-FRET, Mcl-1(171-327) / biotin-Bim (51-76).
Where [7] appears, read: read-out: OPM-2 10% FBS IC50 IP, OPM-2 cells, 10% FBS, 16 h, CellTiter-Glo.

Like-named read-outs stand apart in the source and are kept apart here.

On to `CO[C@]1(CN2C[C@@H](C)N(C(C)C)[C@@H](C)C2)/C=C/C[C@H](C)[C@@H](C)S(=O)(=O)NC(=O)c2ccc3c(c2)N(C[C@@H]2CC[C@H]21)C[C@@]1(CCCc2cc(Cl)ccc21)CO3` [Example 328, (1S,3′R,6′R,7′R,8′E,11′S,12′R)-6-chloro-7′-(((3R,5S)-3,5-dimethyl-4-(1-methylethyl)-1-piperazinyl)methyl)-7′-methoxy-11′,12′-dimethyl-3,4-dihydro-2H,15′H-spiro[naphthalene-1,22′-[20]oxa[13]thia[1,14]diazatetracyclo [14.7.2.0~3,6~.0~19,24~]pentacosa[8,16,18,24]tetraen]-15′-one 13′,13′-dioxide], for which the figures for the 50% inhibitory concentration (IC50) in assay [1] (setting [3]) and in assay [2] (setting [4]) were 48 nM and 0.087 nM, respectively.

Turning to `CC(=O)N[C@@]1(CO)CCC[C@H](C)[C@@H](C)S(=O)(=O)NC(=O)c2ccc3c(c2)N(C[C@@H]2CC[C@H]21)C[C@@]1(CCCc2cc(Cl)ccc21)CO3` [Example 100265, N-((1S,3′R,6′R,7′S,11′S,12′R)-6-chloro-7′-(hydroxymethyl)-11′,12′-dimethyl-13′,13′-dioxido-15′-oxo-3,4-dihydro-2H-spiro[naphthalene-1,22′-[20]oxa[13]thia[1,14]diazatetracyclo [14.7.2.0~3,6~.0~19,24~]pentacosa[16,18,24]trien]-7′-yl)acetamide], the half-inhibitory concentration (IC50) in assay [1] (setting [5]) is 441 nM; in assay [2] (setting [6]) it was 0.439 nM.

On to `CCO[C@@]1(CN2CCN3CCCC[C@@H]3C2)/C=C/C[C@H](C)[C@@H](C)S(=O)(=O)NC(=O)c2ccc3c(c2)N(C[C@@H]2CC[C@H]21)C[C@@]1(CCCc2cc(Cl)ccc21)CO3` [Example 107, (1S,3′R,6′R,7′S,8′E,11′S,12′R)-6-chloro-7′-ethoxy-11′,12′-dimethyl-7′-((9aR)-octahydro-2H-pyrido[1,2-a]pyrazin-2-ylmethyl)-3,4-dihydro-2H,15′H-spiro[naphthalene-1,22′-[20]oxa[13]thia[1,14]diazatetracyclo [14.7.2.0~3,6~.0~19,24~]pentacosa[8,16,18,24]tetraen]-15′-one 13′,13′-dioxide], for which the IC50 in assay [1] (setting [3]) worked out at 872 nM; in assay [2] (setting [4]), 1.14 nM.

`CO[C@]1(CN2CCN3CCCC[C@@H]3C2)/C=C/C[C@H](C)[C@@H](C[C@H](C)O)S(=O)(=O)NC(=O)c2ccc3c(c2)N(C[C@@H]2CC[C@H]21)C[C@@]1(CCCc2cc(Cl)ccc21)CO3` (single isomer, unassigned) [Example 362]: the IC50 in assay [1] (read-out: OPM-2 10% FBS IC50 IP, OPM-2 cells, 10% FBS, 16 h incubation) came to 58 nM; in assay [2] (setting [4]), 0.061 nM.

On to `C[C@@H]1[C@@H](C)C/C=C/[C@@](O)(C2CC2)[C@@H]2CC[C@H]2CN2C[C@@]3(CCCc4cc(Cl)ccc43)COc3ccc(cc32)C(=O)NS1(=O)=O` [Example 100214, (1S,3′R,6′R,7′S,8′E,11′S,12′R)-6-chloro-7′-cyclopropyl-7′-hydroxy-11′,12′-dimethyl-3,4-dihydro-2H,15′H-spiro[naphthalene-1,22′-[20]oxa[13]thia[1,14]diazatetracyclo [14.7.2.0~3,6~.0~19,24~]pentacosa[8,16,18,24]tetraen]-15′-one 13′,13′-dioxide], for which the IC50 in assay [1] (setting [5]) worked out at 95 nM; in assay [2] (setting [6]), 0.143 nM.

With `C[C@@H]1[C@@H](C)C/C=C/[C@@](O)(CC(=O)N(C)CCN(C)C)[C@@H]2CC[C@H]2CN2C[C@@]3(CCCc4cc(Cl)ccc43)COc3ccc(cc32)C(=O)NS1(=O)=O` [Example 100282, 2-((1S,3′R,6′R,7′S,8′E,11′S,12′R)-6-chloro-7′-hydroxy-11′,12′-dimethyl-13′,13′-dioxido-15′-oxo-3,4-dihydro-2H-spiro[naphthalene-1,22′-[20]oxa[13]thia[1,14]diazatetracyclo [14.7.2.0~3,6~.0~19,24~]pentacosa[8,16,18,24]tetraen]-7′-yl)-N-(2-(dimethylamino)ethyl)-N-methylacetamide], the IC50 in assay [1] (setting [7]) came out at 1280 nM; in assay [2] (setting [6]), 0.268 nM.

As to `C[C@@H]1[C@@H](C)CCC[C@](O)(CC(=S)N(C)C)[C@@H]2CC[C@H]2CN2C[C@@]3(CCCc4cc(Cl)ccc43)COc3ccc(cc32)C(=O)NS1(=O)=O` (single isomer, unassigned) [Example 100173], the half-inhibitory concentration (IC50) in assay [1] (setting [7]) was determined as 379 nM; in assay [2] (setting [6]), 0.539 nM.

Broadly, the IC50 is the concentration that gives 50% inhibition.
